Laboratory results published in US9434670B2, “Family of aryl, heteroaryl, O-aryl and O-heteroaryl carbasugars” (TFCHEM, priority 2011, dated 2016).

Legend:
[1] = system: β-glucosidase from Almonds; conditions: as referred in several publications; cited from earlier work
[2] = system: β-glucosidase from Almonds; test: Enzymatic stability against glycosidase, HPLC analysis after incubation with β-glucosidase; format: in vitro ADME
Text: The enzymatic stability assay has been performed with compound 26 according to the invention and compound A used as a reference compound to control the efficacy of the β-glucosidase. The sergliflozin-A stability has also been evaluated in order to compare the improvement of metabolic stability obtained through the replacement of the intracyclic oxygen atom of the glucose moiety by a CF2 moiety.
All the compounds have been treated with β-glucosidase. The stability of compound 26 and Sergliflozin-A has been assessed by HPLC analysis after incubation with β-glucosidase.
A Gilson HPLC system was used, equipped with a manual injection system (V=20 μL), a Diode Array Detector (DAD172) set at a wavelength of 230 nm and a 150 mm×4.6 mm, 5 μm HICHROM Kromasil 100-5C18 reverse phase column. A linear HPLC binary gradient was used as follows: solvent A was water and solvent B was acetonitrile. Following the injection of 20 μL of a sample, solvent B was held at 20% for 3 min, increased from 20% to 90% in 17 min, held at 90% for 4 min; finally, solvent B was decreased back to 20% over 5.5 min and was held at 20% for 3.5 min.
The procedure has been adapted from J. Agric. Food Chem. 2005, 53, 4918-4924.
100 μL of a solution of compound 26 at 4.5·10^−4 mol·L^−1 in acetonitrile was added to a solution containing 800 μL of phosphate buffer (73173 Fluka, pH 7) in the presence of β-glucosidase from Almonds (10 U, 100 μL of a 5.6 mg·mL^−1 solution in phosphate buffer, (G4511sigma 18.7 U per mg)) and was kept 4 h at 37° C.
100 μL of a solution of sergliflozin-A at 4.5·10^−4 moL·L^−1 in acetonitrile has been treated in the presence of β-glucosidase following the same process.
In parallel, 100 μL of a solution of p-nitrophenyl-β-glucoside (compound A) at 4.5·10^−4 mol·L^−1 in phosphate buffer (73173 Fluka, pH 7) was added to a solution containing 700 μL of phosphate buffer and 100 μL of acetonitrile, with the presence of β-glucosidase from Almonds (10 U, 100 μL of a 5.6 mg·mL^−1 solution in phosphate buffer, (G4511 sigma 18.7 U per mg)) and was kept 4 h at 37° C. During the process in the presence of β-glucosidase, a yellow coloration was observed that underlines the decomposition of compound. A.
HPLC of compound 21 (FIG. 7), compound 26 (FIG. 8) and Sergliflozin-A (FIG. 10) have been performed to follow up in the experiments the formation of compound 21 (the aglycone part) implying a degradation of the starting material.
In order to evaluate the percentage of degradation, a calibration has been done on compound 21 giving the following results:
Data have been plotted (Area % versus concentration) and the linear regression obtained was characterized by the equation y=53629x and a R^2=0.994. […]

For `COc1ccc(Cc2ccccc2O[C@@H]2O[C@H](CO)[C@@H](O)[C@H](O)[C@H]2O)cc1` [Sergliflozin-A], the “cleavage by β-glucosidase” value [1] is given as “undergo cleavage”, the “degradation in the presence of β-glucosidase (in words)” value ([2]; 4 h at 37° C., phosphate buffer pH 7, 10 U β-glucosidase) is given as “degradation occurs” and the degradation ([2]; 4 h of incubation at 37° C. with β-glucosidase, pH 7, from HPLC area of aglycone 21) is given as 80%.
